Data: a melting point compilation (Tetko et al.; mined from patent text by program, amines drawn as free bases though some values may be those of a salt)

In the case of CCOC(=O)Cc1ccc(NC(=O)C(COc2cccnc2)NS(=O)(=O)c2ccc(F)cc2)cc1 (racemic), the melting point is reported as 150 to 152 °C.
For CC(=NO)C(C)(C)NCC(CNC(C)(C)C(C)=NO)CC(O)Cn1ccnc1[N+](=O)[O-] (centres undefined), the melting point was 185 to 187 °C.
COC(=O)c1c(OC(C)C)c(Br)c(Br)n1C gave a melting point of 42 to 45 °C.
Compound COC(=O)c1cccc(CN2C(=O)C3(COc4cc5c(cc43)CCO5)c3ccccc32)c1 (centres undefined) has a melting point of 97 to 98 °C.
CS(=O)(=O)c1ccc(-c2cccn2-c2ccccc2)cc1 showed a melting point of 140 to 142 °C.
Work on CC(C)(C)OC(=O)N1C[C@@H](Oc2ccc(N)cc2)C[C@@H]1C(=O)Nc1cc(C(C)(C)C)c(O)c(C(C)(C)C)c1 yielded a melting point of 104 to 106 °C.
With COC(C)(CC(=O)Nc1ccccc1)OC the melting point was 80 °C.
In the case of CCCN1CCO[C@@H]2c3cc4c(=O)n(OC)ccc4cc3CC[C@H]21, the melting point is reported as 142 to 145 °C.
With COC[C@@H](C)n1cc(Cl)nc(N2CCc3cc(Cl)cc(Cl)c32)c1=O the melting point was 93 to 95 °C.
In the case of C=Cc1ccc(C(=O)O)cc1C12CC3CC(CC(C3)C1)C2, the melting point is reported as 315 to 317 °C.
For COC(=O)C(O)=CC(=O)c1ncnc2c1ncn2Cc1ccccc1, the melting point was 166 to 167 °C.
Work on CC(=O)N(c1nc2nc(C)cc(C)n2n1)S(=O)(=O)c1c(Cl)cccc1Cl yielded a melting point of 219 to 222 °C.
Work on Cc1c(CC(=O)O)c2cc(OCc3ccccc3)ccc2n1Cc1ccc(Cl)cc1 yielded a melting point of 140 to 142 °C.
With Nc1cc(NC(=O)c2ccc(F)c(F)c2)ccc1F the melting point was 135 to 142 °C.
With COC(=O)C(C)(C)CCCOc1cc(C)c(NC(=O)C(C)(C)CCCOc2cc(C)ccc2C)cc1C the melting point was 60 to 62 °C.
Cc1scc(-c2ccccc2)c1N=C1NCCN1 gave a melting point of 140 to 141 °C.
With COCCNC(=O)c1cc2c(nc(C)n2C)c2c1CCC1(Cc3ccccc3C1)N2 the melting point was 186 to 187 °C.
With Cc1ccc(-c2cn(C)cc(-c3cccc(C(F)(F)F)c3)c2=O)cc1 the melting point was 154 to 156 °C.
O=CN1CCC(Oc2c(F)c(F)c(F)c(F)c2F)(c2ccccc2)CC1 showed a melting point of 118 to 119 °C.
In the case of COc1ccc(-c2nn3c(N4CCCC4)nnc3c3ccccc23)cc1, the melting point is reported as 196 to 198 °C.
Cc1c(-c2ccccc2)[nH]c(N)c1C(N)=O showed a melting point of 195 to 197 °C.
With CC(C)Oc1ccc2c(c1)Oc1cc(F)ccc1S2(=O)=O the melting point was 135 to 136 °C.
Cc1cnc(N)c(=O)n1C showed a melting point of 217 to 219 °C.
With Oc1ccc(Nc2nc(NCc3ccco3)nc(Nc3ccc(F)c(F)c3)n2)cc1 the melting point was 75 to 77 °C.
Work on CCCc1c(C(=O)NCc2ccc3c(Br)c(OCC(=O)O)ccc3c2)cnn1-c1ccccc1 yielded a melting point of 140 to 145 °C.
For CCCCc1nc(S(=O)CC)c(C(=O)O)n1Cc1ccc(-c2ccccc2C(=O)O)cc1 (centres undefined), the melting point was 186 °C.
O=C1Nc2ccccc2C2(c3ccccc3)OCCN12 (centres undefined) gave a melting point of 194 °C.
For O=C(CC(F)=C(F)F)NS(=O)(=O)C(F)(F)F, the melting point was 115 to 120 °C.
Compound C=CCC(C#N)(C#N)Cc1ccc(C#N)cc1 has a melting point of 81.9 °C.
CSc1cc(C#N)c(Oc2ccc(Cl)c(Cl)c2)cn1 gave a melting point of 96 to 97 °C.
O=[N+]([O-])c1ccc(NN=C(c2ccc(O)cc2O)c2ccc(O)cc2O)c([N+](=O)[O-])c1 showed a melting point of 240 to 242 °C.
Compound CC1(C)OC(C=Cc2ccncc2)=CC1=O has a melting point of 94 to 96 °C.
In the case of COc1ccc(C(=O)Nc2cc(NC(=O)c3cccc(N(C)C)c3)ccc2Cl)cc1OC, the melting point is reported as 98 to 99 °C.
With O=C(O)CCC(=O)c1cc(Cl)ccc1O the melting point was 172 to 173 °C.
COc1cc(C(=O)NC2CN(C)N(C)C2)cc(OC)c1OC showed a melting point of 163 to 166 °C.
In the case of Cc1nc2c(s1)-c1nc(Nc3cccc([N+](=O)[O-])c3)ncc1CC2, the melting point is reported as 227 to 228 °C.
Work on C[C@@H]1C[C@H](CC2CCCCC2)C(=O)O1 (relative stereo) yielded a melting point of 60 to 62 °C.
Compound CCCn1c(=O)c(C(=O)OCC)c(O)c2cnc(-c3ccccc3)nc21 has a melting point of 164 to 167 °C.
In the case of CC1C(=O)N(C2CCCC2)C(=S)N1c1ccc(Oc2ccccc2)cc1 (centres undefined), the melting point is reported as 99 °C.
In the case of CC1=C(CN(C)C(=O)N2CCN(C(N)=O)CC2)C(C)(C)CCC1, the melting point is reported as 140 °C.
CC(=O)Nc1ccc2c(c1)c(-c1cc3cccnc3[nH]1)cn2C showed a melting point of 220 to 221 °C.
Compound COC(=O)c1cc(OC)c(Cl)cc1N has a melting point of 63 to 64 °C.
Work on Clc1ccc(C=Cc2ccccc2)cc1 yielded a melting point of 129 to 130 °C.
Cn1cc2c(O)c(C(=O)c3ccccc3)cnc2n1 showed a melting point of 286 to 290 °C.
Nc1c(-c2cc(Cl)ccc2O)c2cc([N+](=O)[O-])ccc2[nH]c1=O gave a melting point of 344 to 347 °C.
With Cn1cc(CO)c(=O)c2cccc(Cl)c21 the melting point was 182 to 184 °C.
C#Cc1cc(Nc2ncnc3cnc(C)cc23)ccc1F gave a melting point of 225 °C.
Cc1nc2ccc(NC3=NCCN3)c(Br)c2nc1C showed a melting point of 252 to 254 °C.
In the case of CCOC(=O)c1nn(Cc2ccc(Cl)cc2Cl)c(-c2ccc(Cl)cc2)c1C, the melting point is reported as 82 °C.
